Columns and labels:
[1] = target: T1, 11b-HSD1 (Mus musculus, UniProt P50172); assay: Cellular assay, 11b-HSD1 activity in differentiated 3T3-L1 cells; format: cell-based; details: 4 hour pre-incubation, pIC50 scored, read-out: [C2] HSD1 cellular 3T3-L1 Score
T1 construct: endogenous in cells; host or cells: 3T3-L1 (ATCC-CL-173), differentiated into adipocytes
Method: The effects on 11b-HSD1 activity was measured in differentiated 3T3-L1 cells and rat hepatocytes.
Mouse fibroblast 3T3-L1 cells (ATCC-CL-173) were seeded at a density of 16500 cells/ml in 12 well plates and grown for 7 days in DMEM medium (supplemented with 10% heat inactivated foetal calf serum, 2 mM glutamine and 25 mg gentamycin) at 37° C. in a humidified 5% CO2 atmosphere. Medium was refreshed twice a week. Fibroblasts were differentiated into adipocytes at 37° C. in a 5% CO2 humidified atmosphere in growth medium containing 2 μg/ml insulin, 55 μg/ml IBMX and 39.2 μg/ml dexamethasone.
Primary hepatocytes from male rats were seeded on normal Falcon 12 well plates at a density of 250000 cells/well and incubated for 16 hours at 37° C. in a 5% CO2 humidified atmosphere in DMEM-HAM's F12 medium containing 5% Nu-serum, 100 U/ml penicillin, 100 μg/ml streptomycin, 0.25 μg/ml amphotericin B, 50 μg/ml gentamycin sulfate, 5 μg/ml insulin and 392 ng/ml dexamethasone. Following a 4 hour pre-incubation with test compound, 0.5 μCi ^3H-cortisone or dehydrocorticosterone, was added to the 3T3-L1 cultures. One hour later, the medium was extracted on Extrelut^3-columns with 15 ml diethyl ether and the extract was analysed by HPLC as described above. The effects of JNJ-compounds on rat hepatocyte HSD1 activity was measured after an incubation period of 90 minutes with 0.5 μCi^3H-dehydrocorticosterone. Corticosterone formation was analysed by HPLC.
(§1) As for the enzymatic assays, the compounds to be tested were taken from a stock solution and tested at a final concentration ranging from −10^−5M to 3·10^−9M. From the thus obtained dose response curves, the pIC50 value was calculated and scored as follows; Score 1=pIC50 value<5, Score 2=pIC50 value in the range of 5 to 6, Score 3=pIC50 value>6. (in this table NT stands for Not Tested).

[2] = target: hHSD1 (Homo sapiens, UniProt P28845); assay: Enzymatic assay, 11b-HSD1 reductase activity (conversion of cortisone into cortisol), recombinant protein; format: biochemical; details: 2 μM cortisone, 180 μM NADPH, pH 7.2, pIC50 scored, read-out: [C1] hHSD1 reductase Score
Sequence of hHSD1 (P28845 whole entry): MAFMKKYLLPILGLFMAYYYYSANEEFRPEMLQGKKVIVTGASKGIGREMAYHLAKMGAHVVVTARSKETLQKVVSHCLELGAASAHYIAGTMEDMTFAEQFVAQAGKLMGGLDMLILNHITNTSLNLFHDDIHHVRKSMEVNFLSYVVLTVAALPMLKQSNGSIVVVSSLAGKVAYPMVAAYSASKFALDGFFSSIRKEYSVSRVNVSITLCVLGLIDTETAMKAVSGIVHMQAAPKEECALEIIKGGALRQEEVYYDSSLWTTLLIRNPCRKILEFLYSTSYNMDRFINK
Method: The effects of compounds on 11b-HSD1 dependent conversion of cortisone into cortisol (reductase activity) was studied in a reaction mixture containing 30 mM Tris-HCl buffer pH 7.2, 180 μM NADPH, 1 mM EDTA, 2 μM cortisone, 1 μl drug and/or solvent and 11 μg recombinant protein in a final volume of 100 μl.
All incubations were performed for 45 min at 37 C in a water bath. The reaction was stopped by adding 100 μl acetonitrile containing 20 μg corticosterone as internal standard. After centrifugation, the product formation was analysed in the supernatant by HPLC on a Hypersyl BDS-C18 column using 0.05 mM ammonium acetate/methanol (50/50) as solvent. In all of the aforementioned assays, the drugs to be tested were taken from a stock solution and tested at a final concentration ranging from −10^−5M to 3·10^−9M. From the thus obtained dose response curves, the pIC50 value was calculated and scored as follows; Score 1=pIC50 value<5, Score 2=pIC50 value in the range of 5 to 6, Score 3=pIC50 value>6. (in this table NT stands for Not Tested).

[3] = target: T2, 11b-HSD2 (Homo sapiens, UniProt P80365); assay: Cellular assay, 11b-HSD2 activity in HepG2 cells; format: cell-based; details: 4 hour pre-incubation, pIC50 scored, read-out: [C2] HSD2 cellular HepG2 Score
T2 construct: endogenous in cells; host or cells: HepG2 (ATCC HB-8065)
T2 sequence (P80365 1-405): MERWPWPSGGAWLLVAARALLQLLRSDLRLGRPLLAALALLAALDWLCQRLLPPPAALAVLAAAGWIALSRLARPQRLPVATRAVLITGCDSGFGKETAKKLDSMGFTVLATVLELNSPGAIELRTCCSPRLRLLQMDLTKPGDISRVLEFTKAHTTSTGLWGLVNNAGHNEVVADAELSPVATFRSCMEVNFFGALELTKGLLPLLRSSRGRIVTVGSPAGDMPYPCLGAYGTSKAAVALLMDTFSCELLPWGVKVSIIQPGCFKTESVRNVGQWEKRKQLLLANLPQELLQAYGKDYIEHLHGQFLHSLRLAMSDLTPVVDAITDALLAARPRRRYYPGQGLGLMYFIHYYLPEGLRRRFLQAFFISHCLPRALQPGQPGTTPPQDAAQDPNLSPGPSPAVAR
Method: The effects on 11b-HSD2 activity was studied in HepG2 and LCC-PK1-cells HepG2-cells (ATCC HB-8065) were seeded in 12 well plates at a density of 100,000 cells/ml and grown at 37° C. in a humidified 5% CO2 atmosphere in MEM-Rega-3 medium supplemented with 10% heat inactivated foetal calf serum, 2 mM L-glutamine and sodium bicarbonate). Medium was refreshed twice a week.
Following a 4 hour pre-incubation with test compound, 0.5 μCi ^3H-cortisol or corticosterone, was added to the cultures. One hour later, the medium was extracted on Extrelut^3-columns with 15 ml diethyl ether and the extract was analysed by HPLC as described above.
as §1

T1 sequence (P50172 whole entry): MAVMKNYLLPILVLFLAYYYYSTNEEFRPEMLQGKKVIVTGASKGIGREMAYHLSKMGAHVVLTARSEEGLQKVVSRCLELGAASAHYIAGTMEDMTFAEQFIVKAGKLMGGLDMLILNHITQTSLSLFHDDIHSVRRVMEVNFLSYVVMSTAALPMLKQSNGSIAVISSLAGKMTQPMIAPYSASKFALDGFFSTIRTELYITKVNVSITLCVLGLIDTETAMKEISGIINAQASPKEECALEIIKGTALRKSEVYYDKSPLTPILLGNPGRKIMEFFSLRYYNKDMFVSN

Compound `O=C1[C@@H]2c3ccccc3CC[C@@H]2CN1C1C2CC3CC(C2)CC1C3` (some centres unmarked) [Compound 1] has an IC50 [1] of 1 to 10 µM and an IC50 [2] of 1 to 10 µM.
Work on `O=C1C2Cc3ccccc3CC2CN1C1C2CC3CC(C2)CC1C3` (centres unmarked) [Compound 2] yielded an IC50 [1] of under 1 µM, an IC50 [2] of under 1 µM and an IC50 [3] of 1 to 10 µM.
With `O=C1[C@H]2CCc3ccccc3[C@@H]2CN1C1C2CC3CC(C2)CC1C3` (some centres unmarked) [Compound 3] the IC50 [1] was under 1 µM, the IC50 [2] was under 1 µM and the IC50 [3] was under 1 µM.
Compound `O=C1[C@H]2Cc3ccccc3CN2CN1C1C2CC3CC(C2)CC1C3` (some centres unmarked) [Compound 4] has an IC50 [1] of under 1 µM, an IC50 [2] of over 10 µM and an IC50 [3] of over 10 µM.
`O=C1N(C2C3CC4CC(C3)CC2C4)C[C@H]2Cc3ccccc3CN12` (some centres unmarked) [Compound 5] gave an IC50 [1] of under 1 µM, an IC50 [2] of 1 to 10 µM and an IC50 [3] of 1 to 10 µM.
Compound `O=C1N2CCc3ccccc3C2CN1C1C2CC3CC(C2)CC1C3` (centres unmarked) [Compound 6] has an IC50 [1] of under 1 µM, an IC50 [2] of under 1 µM and an IC50 [3] of under 1 µM.
For `O=C1N2CCc3ccc(Br)cc3C2CN1C1C2CC3CC(C2)CC1C3` (centres unmarked) [Compound 7], the IC50 [1] was under 1 µM and the IC50 [2] was under 1 µM.
Compound `O=C1[C@@H]2CCc3ccccc3[C@@H]2CN1C1C2CC3CC(C2)CC1C3` (some centres unmarked) [Compound 8] has an IC50 [1] of under 1 µM, an IC50 [2] of 1 to 10 µM and an IC50 [3] of 1 to 10 µM.
`COc1cccc2c1CC1CN(C3C4CC5CC(C4)CC3C5)C(=O)C1C2` (centres unmarked) [Compound 9] showed an IC50 [1] of under 1 µM, an IC50 [2] of 1 to 10 µM and an IC50 [3] of 1 to 10 µM.
In the case of `COc1ccc2c(c1)CC1C(=O)N(C3C4CC5CC(C4)CC3C5)CC1C2` (centres unmarked) [Compound 10], the IC50 [1] is reported as under 1 µM, the IC50 [2] is reported as under 1 µM and the IC50 [3] is reported as over 10 µM.
`O=C1N(C2C3CC4CC(C3)CC2C4)C[C@@H]2Cc3ccccc3CN12` (some centres unmarked) [Compound 11] showed an IC50 [1] of under 1 µM.
In the case of `O=C1[C@@H]2Cc3ccccc3CN2CN1C1C2CC3CC(C2)CC1C3` (some centres unmarked) [Compound 12], the IC50 [1] is reported as 1 to 10 µM.
`O=C1N(C2C3CC4CC(C3)CC2C4)CC2CCc3ccccc3N12` (centres unmarked) [Compound 13] gave an IC50 [1] of over 10 µM, an IC50 [2] of over 10 µM and an IC50 [3] of over 10 µM.
`O=C1N(CC23CC4CC(CC(C4)C2)C3)CC2c3ccccc3CCN12` (centres unmarked) [Compound 14] gave an IC50 [1] of under 1 µM, an IC50 [2] of under 1 µM and an IC50 [3] of 1 to 10 µM.
`O=C1[C@H]2CCc3ccccc3[C@@H]2CN1CC12CC3CC(CC(C3)C1)C2` [Compound 15] showed an IC50 [1] of under 1 µM, an IC50 [2] of under 1 µM and an IC50 [3] of 1 to 10 µM.
For `O=C1[C@@H]2CCc3ccccc3[C@@H]2CN1CC12CC3CC(CC(C3)C1)C2` [Compound 16], the IC50 [1] was under 1 µM, the IC50 [2] was under 1 µM and the IC50 [3] was 1 to 10 µM.
Work on `O=C1[C@H]2CCc3ccccc3[C@@H]2CN1C12CC3CC(CC(C3)C1)C2` [Compound 17] yielded an IC50 [1] of under 1 µM, an IC50 [2] of under 1 µM and an IC50 [3] of under 1 µM.
`O=C1[C@H]2Cc3ccsc3C[C@@H]2CN1C1C2CC3CC(C2)CC1C3` (some centres unmarked) [Compound 18] showed an IC50 [1] of under 1 µM, an IC50 [2] of under 1 µM and an IC50 [3] of 1 to 10 µM.
Work on `O=C1[C@@H]2CCc3ccccc3[C@H]2CN1Cc1ccccc1` [Compound 19] yielded an IC50 [1] of under 1 µM and an IC50 [2] of over 10 µM.
For `O=C1[C@@H]2CCc3ccccc3[C@@H]2CN1Cc1ccccc1` [Compound 20], the IC50 [1] was under 1 µM and the IC50 [2] was 1 to 10 µM.
For `O=C1C2=Cc3cccnc3CC2CN1C1C2CC3CC(C2)CC1C3` (centres unmarked) [Compound 21], the IC50 [1] was under 1 µM and the IC50 [2] was over 10 µM.
Work on `O=C1C2=Cc3cnccc3CC2CN1C1C2CC3CC(C2)CC1C3` (centres unmarked) [Compound 22] yielded an IC50 [1] of under 1 µM and an IC50 [2] of 1 to 10 µM.
In the case of `O=C1N2CCc3c(Br)cccc3C2CN1C1C2CC3CC(C2)CC1C3` (centres unmarked) [Compound 23], the IC50 [1] is reported as under 1 µM, the IC50 [2] is reported as under 1 µM and the IC50 [3] is reported as under 1 µM.
`O=C1N2CCc3ccccc3C2CN1[C@H]1[C@@H]2CC3C[C@H]1C[C@](O)(C3)C2` (some centres unmarked) [Compound 24] gave an IC50 [1] of under 1 µM, an IC50 [2] of under 1 µM and an IC50 [3] of under 1 µM. For the same compound, the melting point was 235 to 237 °C.
In the case of `O=C1N2CCc3ccccc3C2CN1[C@@H]1[C@@H]2CC3C[C@H]1C[C@](O)(C3)C2` (some centres unmarked) [Compound 25], the IC50 [1] is reported as under 1 µM, the IC50 [2] is reported as 1 to 10 µM and the melting point is reported as 210 to 212 °C.
Work on `O=C1[C@@H]2Cc3ccccc3C[C@@H]2CN1[C@@H]1[C@@H]2CC3C[C@H]1C[C@](O)(C3)C2` [Compound 26] yielded an IC50 [1] of 1 to 10 µM, an IC50 [2] of 1 to 10 µM and an IC50 [3] of over 10 µM.
`O=C1[C@H]2Cc3ccccc3C[C@H]2CN1[C@H]1[C@@H]2CC3C[C@H]1C[C@](O)(C3)C2` [Compound 27] gave an IC50 [1] of under 1 µM, an IC50 [2] of under 1 µM and an IC50 [3] of 1 to 10 µM.
For `O=C1[C@@H]2Cc3cccnc3C[C@@H]2CN1[C@@H]1[C@@H]2CC3C[C@H]1C[C@](O)(C3)C2` [Compound 28], the IC50 [1] was over 10 µM, the IC50 [2] was over 10 µM and the IC50 [3] was over 10 µM.
For `O=C1[C@H]2Cc3cnccc3C[C@H]2CN1[C@@H]1[C@@H]2CC3C[C@H]1C[C@](O)(C3)C2` [Compound 29], the IC50 [1] was over 10 µM, the IC50 [2] was over 10 µM and the IC50 [3] was over 10 µM.
Compound `O=C1C2=Cc3cnccc3CC2CN1[C@H]1[C@@H]2CC3C[C@H]1C[C@](O)(C3)C2` (some centres unmarked) [Compound 30] has an IC50 [1] of 1 to 10 µM, an IC50 [2] of over 10 µM and an IC50 [3] of over 10 µM.
In the case of `O=C1[C@@H]2CCc3ccccc3[C@H]2CN1[C@H]1[C@@H]2CC3C[C@H]1C[C@](O)(C3)C2` [Compound 31], the IC50 [1] is reported as under 1 µM, the IC50 [2] is reported as under 1 µM and the IC50 [3] is reported as under 1 µM.
Work on `O=C1[C@@H]2CCc3ccccc3[C@H]2CN1[C@H]1[C@@H]2CC3C[C@H]1C[C@](F)(C3)C2` [Compound 32] yielded an IC50 [1] of under 1 µM, an IC50 [2] of under 1 µM and an IC50 [3] of under 1 µM.
Work on `O=C1[C@@H]2CCc3ccccc3[C@@H]2CN1[C@H]1[C@@H]2CC3C[C@H]1C[C@](O)(C3)C2` [Compound 33] yielded an IC50 [1] of under 1 µM, an IC50 [2] of under 1 µM and an IC50 [3] of under 1 µM.
With `O=C1[C@H]2Cc3cnccc3C[C@H]2CN1[C@H]1[C@@H]2CC3C[C@H]1C[C@](O)(C3)C2` [Compound 34] the IC50 [1] was 1 to 10 µM and the IC50 [2] was 1 to 10 µM.
